Target: P2X7 receptor (Homo sapiens (Human), UniProt Q99572)
Assay: P2X7 FLIPR assay (BzATP-stimulated calcium fluorescence, antagonist IC50)
Assay type: cell-based
Procedure, shortened: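 Cells expressing P2X7 receptor (human, rat or mouse), plated 24 hours earlier in low-serum medium, loaded with Fluo-4 NW dye (30 min 37° C, 30 min room temperature).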

Sequence of P2X7 receptor (Q99572 whole entry): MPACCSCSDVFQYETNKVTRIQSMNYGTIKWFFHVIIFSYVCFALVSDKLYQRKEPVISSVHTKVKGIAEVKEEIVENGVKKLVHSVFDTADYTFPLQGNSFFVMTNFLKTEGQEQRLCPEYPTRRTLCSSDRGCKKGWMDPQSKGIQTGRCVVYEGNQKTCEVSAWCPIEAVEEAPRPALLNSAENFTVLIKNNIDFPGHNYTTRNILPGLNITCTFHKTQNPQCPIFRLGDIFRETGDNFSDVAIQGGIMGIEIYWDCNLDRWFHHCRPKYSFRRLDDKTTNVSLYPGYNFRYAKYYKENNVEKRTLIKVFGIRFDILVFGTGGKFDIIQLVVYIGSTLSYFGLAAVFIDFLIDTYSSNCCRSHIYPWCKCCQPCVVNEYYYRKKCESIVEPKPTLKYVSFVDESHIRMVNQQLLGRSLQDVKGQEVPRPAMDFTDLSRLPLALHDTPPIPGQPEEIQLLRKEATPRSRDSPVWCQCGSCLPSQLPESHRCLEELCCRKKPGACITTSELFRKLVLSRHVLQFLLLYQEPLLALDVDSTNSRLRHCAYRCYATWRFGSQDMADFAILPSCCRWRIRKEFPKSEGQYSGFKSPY

SMILES	IC50
Cc1ncc(C(CNC(=O)c2c(Cl)cccc2Cl)CC2CC2)cn1 (single isomer, unassigned; (-)) [(−)2,6-dichloro-N-[3-cyclopropyl-2-(2-methylpyrimidin-5-yl)p] [(−)2,6-dichloro-N-[3-cyclopropyl-2-(2-methylpyrimidin-5-yl)propyl]benzamide]	9.9 nM
O=C(NCC(CC1CC1)c1cnc(C(F)(F)F)nc1)c1c(Cl)cccc1Cl (single isomer, unassigned; (-)) [(−)2,6-dichloro-N-[3-cyclopropyl-2-[2-(trifluoromethyl)pyrim] [(−)2,6-dichloro-N-[3-cyclopropyl-2-[2-(trifluoromethyl)pyrimidin-5-yl]propyl]benzamide]	0.82 nM
O=C(NCC(CC1CC1)c1ccc(C(F)(F)F)nc1)c1c(Cl)cccc1Cl (single isomer, unassigned; (-)) [(−)2,6-dichloro-N-[3-cyclopropyl-2-[6-(trifluoromethyl)-3-py] [(−)2,6-dichloro-N-[3-cyclopropyl-2-[6-(trifluoromethyl)-3-pyridyl]propyl]benzamide]	1.2 nM
O=C(NCC(c1ccc(F)cc1)c1cnc(C(F)(F)F)nc1)c1cccc(F)c1Cl (single isomer, unassigned; (-)) [(−)2-chloro-3-fluoro-N-[2-(4-fluorophenyl)-2-[2-(trifluorome] [(−)2-chloro-3-fluoro-N-[2-(4-fluorophenyl)-2-[2-(trifluoromethyl)pyrimidin-5-yl]ethyl]benzamide]	1.8 nM
O=C(NCC(c1ccc(F)cc1)c1ccc(C(F)(F)F)nc1)c1cccc(F)c1Cl (single isomer, unassigned; (-)) [(−)2-chloro-3-fluoro-N-[2-(4-fluorophenyl)-2-[6-(trifluorome] [(−)2-chloro-3-fluoro-N-[2-(4-fluorophenyl)-2-[6-(trifluoromethyl)-3-pyridyl]ethyl]benzamide]	7 nM
O=C(NCC(c1cnc(C(F)(F)F)nc1)C1CCOCC1)c1cccc(F)c1Cl (single isomer, unassigned; (-)) [(−)2-chloro-3-fluoro-N-[2-tetrahydropyran-4-yl-2-[2-(trifluo] [(−)2-chloro-3-fluoro-N-[2-tetrahydropyran-4-yl-2-[2-(trifluoromethyl)pyrimidin-5-yl]ethyl]benzamide]	64 nM
O=C(NCC(CC1(C(F)(F)F)CC1)c1cnc(C(F)(F)F)nc1)c1cccc(F)c1Cl (single isomer, unassigned; (-)) [(−)2-chloro-3-fluoro-N-[3-[1-(trifluoromethyl)cyclopropyl]-2] [(−)2-chloro-3-fluoro-N-[3-[1-(trifluoromethyl)cyclopropyl]-2-[2-(trifluoromethyl)pyrimidin-5-yl]propyl]benzamide]	29 nM
O=C(NCC(CC1(C(F)(F)F)CC1)c1ccc(C(F)(F)F)nc1)c1cccc(F)c1Cl (single isomer, unassigned; (-)) [(−)2-chloro-3-fluoro-N-[3-[1-(trifluoromethyl)cyclopropyl]-2] [(−)2-chloro-3-fluoro-N-[3-[1-(trifluoromethyl)cyclopropyl]-2-[6-(trifluoromethyl)-3-pyridyl]propyl]benzamide]	16 nM
O=C(NCC(c1ccc(F)cc1)c1cnc(C(F)(F)F)nc1)c1c(F)cccc1Cl (single isomer, unassigned; (-)) [(−)2-chloro-6-fluoro-N-[2-(4-fluorophenyl)-2-[2-(trifluorome] [(−)2-chloro-6-fluoro-N-[2-(4-fluorophenyl)-2-[2-(trifluoromethyl)pyrimidin-5-yl]ethyl]benzamide]	2.6 nM
O=C(NCC(c1ccc(F)cc1)c1ccc(C(F)(F)F)nc1)c1c(F)cccc1Cl (single isomer, unassigned; (-)) [(−)2-chloro-6-fluoro-N-[2-(4-fluorophenyl)-2-[6-(trifluorome] [(−)2-chloro-6-fluoro-N-[2-(4-fluorophenyl)-2-[6-(trifluoromethyl)-3-pyridyl]ethyl]benzamide]	8.5 nM
O=C(NCC(c1cnc(C(F)(F)F)nc1)C1CCOCC1)c1c(F)cccc1Cl (single isomer, unassigned; (-)) [(−)2-chloro-6-fluoro-N-[2-tetrahydropyran-4-yl-2-[2-(trifluo] [(−)2-chloro-6-fluoro-N-[2-tetrahydropyran-4-yl-2-[2-(trifluoromethyl)pyrimidin-5-yl]ethyl]benzamide]	68 nM
Cc1ncc(C(CNC(=O)c2ccccc2Cl)C2CCOCC2)cn1 (single isomer, unassigned; (-)) [(−)2-chloro-N-[2-(2-methylpyrimidin-5-yl)-2-tetrahydropyran-] [(−)2-chloro-N-[2-(2-methylpyrimidin-5-yl)-2-tetrahydropyran-4-yl-ethyl]benzamide]	570 nM
Cc1ncc(C(CNC(=O)c2ccccc2Cl)CC2(C(F)(F)F)CC2)cn1 (single isomer, unassigned; (-)) [(−)2-chloro-N-[2-(2-methylpyrimidin-5-yl)-3-[1-(trifluoromet] [(−)2-chloro-N-[2-(2-methylpyrimidin-5-yl)-3-[1-(trifluoromethyl)cyclopropyl]propyl]benzamide]	650 nM
O=C(NCC(c1cnc(C(F)(F)F)nc1)C1CCC(F)(F)CC1)c1cccc(F)c1Cl (single isomer, unassigned; (-)) [(−)2-chloro-N-[2-(4,4-difluorocyclohexyl)-2-[2-(trifluoromet] [(−)2-chloro-N-[2-(4,4-difluorocyclohexyl)-2-[2-(trifluoromethyl)pyrimidin-5-yl]ethyl]-3-fluoro-benzamide]	44 nM
O=C(NCC(c1cnc(C(F)(F)F)nc1)C1CCC(F)(F)CC1)c1c(F)cccc1Cl (single isomer, unassigned; (-)) [(−)2-chloro-N-[2-(4,4-difluorocyclohexyl)-2-[2-(trifluoromet] [(−)2-chloro-N-[2-(4,4-difluorocyclohexyl)-2-[2-(trifluoromethyl)pyrimidin-5-yl]ethyl]-6-fluoro-benzamide]	61 nM
O=C(NCC(c1cnc(C(F)(F)F)nc1)C1CCC(F)(F)CC1)c1ccccc1Cl (single isomer, unassigned; (-)) [(−)2-chloro-N-[2-(4,4-difluorocyclohexyl)-2-[2-(trifluoromet] [(−)2-chloro-N-[2-(4,4-difluorocyclohexyl)-2-[2-(trifluoromethyl)pyrimidin-5-yl]ethyl]benzamide]	6.4 nM

Results, then the compound that gave them:

IC50	SMILES
2 nM	O=C(NCC(c1ccc(F)cc1)c1cnc(C(F)(F)F)nc1)c1ccccc1Cl (single isomer, unassigned; (-)) [(−)2-chloro-N-[2-(4-fluorophenyl)-2-[2-(trifluoromethyl)pyri] [(−)2-chloro-N-[2-(4-fluorophenyl)-2-[2-(trifluoromethyl)pyrimidin-5-yl]ethyl]benzamide]
3.1 nM	O=C(NCC(c1ccc(F)cc1)c1ccc(C(F)(F)F)nc1)c1ccccc1Cl (single isomer, unassigned; (-)) [(−)2-chloro-N-[2-(4-fluorophenyl)-2-[6-(trifluoromethyl)-3-p] [(−)2-chloro-N-[2-(4-fluorophenyl)-2-[6-(trifluoromethyl)-3-pyridyl]ethyl]benzamide]
56 nM	O=C(NCC(c1cnc(C(F)(F)F)nc1)C1CCOCC1)c1ccccc1Cl (single isomer, unassigned; (-)) [(−)2-chloro-N-[2-tetrahydropyran-4-yl-2-[2-(trifluoromethyl)] [(−)2-chloro-N-[2-tetrahydropyran-4-yl-2-[2-(trifluoromethyl)pyrimidin-5-yl]ethyl]benzamide]
32 nM	O=C(NCC(CC1(C(F)(F)F)CC1)c1ccc(C(F)(F)F)nc1)c1ccccc1Cl (single isomer, unassigned; (-)) [(−)2-chloro-N-[3-[1-(trifluoromethyl)cyclopropyl]-2-[6-(trif] [(−)2-chloro-N-[3-[1-(trifluoromethyl)cyclopropyl]-2-[6-(trifluoromethyl)-3-pyridyl]propyl]benzamide]
4.7 nM	O=C(NCC(CC1CC1)c1cnc(C(F)(F)F)nc1)c1cccc(F)c1Cl (single isomer, unassigned; (-)) [(−)2-chloro-N-[3-cyclopropyl-2-[2-(trifluoromethyl)pyrimidin] [(−)2-chloro-N-[3-cyclopropyl-2-[2-(trifluoromethyl)pyrimidin-5-yl]propyl]-3-fluoro-benzamide]
3.4 nM	COc1cccc(C(=O)NCC(CC2CC2)c2cnc(C(F)(F)F)nc2)c1Cl (single isomer, unassigned; (-)) [(−)2-chloro-N-[3-cyclopropyl-2-[2-(trifluoromethyl)pyrimidin] [(−)2-chloro-N-[3-cyclopropyl-2-[2-(trifluoromethyl)pyrimidin-5-yl]propyl]-3-methoxy-benzamide]
3.2 nM	O=C(NCC(CC1CC1)c1cnc(C(F)(F)F)nc1)c1ccccc1Cl (single isomer, unassigned; (-)) [(−)2-chloro-N-[3-cyclopropyl-2-[2-(trifluoromethyl)pyrimidin] [(−)2-chloro-N-[3-cyclopropyl-2-[2-(trifluoromethyl)pyrimidin-5-yl]propyl]benzamide]
19 nM	O=C(NCC(CC1CC1)c1ccc(C(F)F)nc1)c1cccc(F)c1Cl (single isomer, unassigned; (-)) [(−)2-chloro-N-[3-cyclopropyl-2-[6-(difluoromethyl)-3-pyridyl] [(−)2-chloro-N-[3-cyclopropyl-2-[6-(difluoromethyl)-3-pyridyl]propyl]-3-fluoro-benzamide]
17 nM	O=C(NCC(CC1CC1)c1ccc(C(F)F)nc1)c1ccccc1Cl (single isomer, unassigned; (-)) [(−)2-chloro-N-[3-cyclopropyl-2-[6-(difluoromethyl)-3-pyridyl] [(−)2-chloro-N-[3-cyclopropyl-2-[6-(difluoromethyl)-3-pyridyl]propyl]benzamide]
110 nM	O=C(NCC(CC1CC1)c1ccc(C(F)(F)F)nc1)c1cccc(C(F)(F)F)c1Cl (single isomer, unassigned; (-)) [(−)2-chloro-N-[3-cyclopropyl-2-[6-(trifluoromethyl)-3-pyridy] [(−)2-chloro-N-[3-cyclopropyl-2-[6-(trifluoromethyl)-3-pyridyl]propyl]-3-(trifluoromethyl)benzamide]

— US9102591B2, “Benzamides” (H. Lundbeck A/S, priority 2012, dated 2015)
